Source: patent US20260102377A1, “COMPOSITIONS AND METHODS FOR TREATING MYASTHENIA GRAVIS” (priority 2022, published 2026)
Values joined by “and” are separate entries in the source; they are usually repeats but may differ in a detail not shown here. Identical values can stand only once.

System: EAMG rats
Experiment: Grip strength test after single dose of Mestinon and CIC-1 inhibitor alone or in combination
Type: in vivo, rat
Settings: per oral, 45 minutes post dosing, 0.375 mg/kg Mestinon, 20 mg/kg NMD670 or both
Experimental: To induce EAMG, 250 μL of emulsion of Complete Freund's Adjuvant, consisting of heat-inactivated Mycobacterium tuberculosis H37Ra in non-metabolizable oils, together with Phosphate-Buffered Saline (PBS) and 80 μg of the extracellular α-domain peptide fragment of the human nicotinic acetylcholine receptor (antigen) was injected subcutaneously in seven-week-old, anaesthetized Lewis rats. The disease-inducing antigen was supplied by the Hellenic Pasteur institute3. The emulsion was deposited at the tail base, left hindleg, and right foreleg. After injection, animals were allowed to recover and returned to their home cage maintained in ventilated racks under controlled temperature (20 to 22° C.) and humidity (˜55%) control, under a 12-h light/12-h dark cycle with food and water provided ad libitum. The animals had pathogen free status and the housing and changing system was designed to assure that the pathogen free status was preserved during the study. The EAMG rats were observed, weighed, and scored for MG symptoms weekly until symptoms of MG developed, whereafter animals were observed daily.
In EAMG animals with severe MG symptoms the effects of CIC-1 inhibitor and Mestinon (pyridostigmine) alone or in combination was assessed. […] The study was blinded to both the experimenter and during subsequent analysis. Animals were subjected to grip strength test before compound administration, as described above and then dosed per oral with either 0.375 mg/kg pyridostigmine bromide (Mestinon) (CAS-no 101-26-8), 20 mg/kg NMD670 or a combination of both pyridostigmine and NMD670. Grip strength was tested 45 minutes post dosing. […] The change in grip strengths was calculated for individual animals relative to the results obtained prior to administration of test article and then averaged.
Grip strength was measured on a BIOSEB BIO-GT3 Grip strength meter (force transducer, S/N 180271). […] Care was taken to ensure that the force recorded reflected the grip strength of the rat and not the force of the pulls conducted by the operator. […]

CN(C)C(=O)Oc1ccc[n+](C)c1 [Mestinon, pyridostigmine bromide, reference compound]
Increase in Pulled Force (%): 5±4% and 5.3 ± 3.8%
